Reference: patent publication US11440880B2, “Thalidomide analogs and methods of use” (The USA, as represented by the Secretary, Department of …, priority 2015, dated 2022)

Legend:
WT zebrafish embryos = assay: WT zebrafish embryo development / teratogenicity; format: in vivo, zebrafish (Danio rerio); details: in words; at concentrations active in fli1:EGFP or mpo:GFP assays
Text: To determine the effects of the candidate compounds on embryonic development, two in vivo model systems (developing zebrafish and chicken embryos) were utilized.
Malformations in the development of the zebrafish embryo were noted, including inhibition of eye, otic vesicle and fin development (FIGS. 7A-7F). […] Embryos were screened at concentrations previously determined, in this study, to be anti-angiogenic or anti-inflammatory in the fli1:EGFP and mpo:GFP assays respectively.
Concentrations used in the WT zebrafish and chicken embryo assays to assess for teratogenesis, were equal to or higher than those utilized in the fil1:EGFP and mpo:GFP zebrafish assays

[1] = test system: rat aortic rings (microvessel outgrowth); assay: Rat aortic ring assay of angiogenesis; format: cell-based, Sprague Dawley rats; details: 50 μM, 5 days
Procedure: Matrigel® matrix (BD Biosciences) was defrosted overnight on ice. The wells of a 24 well plate were coated with 300 μL of the gel using frozen pipette tips. The gel was left to set at room temperature. When required, six week old male Sprague Dawley rats were euthanized by CO2 and decapitation. The blood was drained from the tissue and the descending aorta dissected. The aorta was cleaned in EBM media, the over lying fascia removed, and the tissue was sliced into 1-mm sections using a sterile scalpel and tweezers. The sections were rinsed in clean EBM then placed onto the coagulated gel. Another 300 μL of Matrigel® matrix was pipetted onto the ring and left to set for 30 minutes. EGM™-II endothelial growth medium (500 μL) was added to each well. The rings were incubated overnight at 37° C. The next day the media was removed and replaced with EBM containing compounds (50 μM) or media. TNP-470 ((Chloracetyl) carbamic acid (3R,4S,5S,6R)-5-methoxy-4-[(2R,3R)-2-methyl-3-(3-methyl-2-butenyl)oxiranyl]-1-oxaspiro[2.5]oct-6-yl ester) was used as a positive control. The rings were incubated in the compounds for 5 days. On day 5 the rings were imaged using an EVOS™ scope. The vessel outgrowth was quantified by binary conversion in Image J open-source image processing software and average outgrowth calculated (FIG. 9).

SMILES	effect on development / mortality of zebrafish embryos (WT zebrafish embryos)	microvessel outgrowth [1] [%]
Nc1cccc2c1CN(C13CC4CC(CC(C4)C1)C3)C2=O [Compound 77, 2,3-Dihydro-4-amino-2-(tricyclo[3.3.1.1^3,7]dec-1-yl)-1H-isoindol-1-one]	no apparent effect on the development of the zebrafish embryo	–
O=C1c2ccccc2CN1C12CC3CC(CC(O)(C3)C1)C2 [Compound 86, 2,3-Dihydro-2-(tricyclo[3.3.1.1^3,7]dec-1-hydroxy-3-yl)-1H-isoindol-1-one]	–	17.3
